# Test results taken from US5795907A, “Gastin and CCK receptor ligands” (James Black Foundation Limited, priority 1994, dated 1998).
# Experiments:
# CCKB receptor = biological target: T1, CCKB receptor (Mus musculus, UniProt P56481); assay: CCKB receptor radioligand binding assay in mouse cortical membranes ([125I]-CCK8S); details: [125I]-CCK8S 200 pM, 150 min at 21±3°; for Ki: read-out: CCKB pKi (converted)
# T1 construct: The cortex was dissected, weighed and homogenised in 40ml ice-cold buffer; tissue Charles River (supplier of the CD1 mice); host or cells: cerebral cortex membranes of male CD1 mice
# T1 sequence (P56481 1-453): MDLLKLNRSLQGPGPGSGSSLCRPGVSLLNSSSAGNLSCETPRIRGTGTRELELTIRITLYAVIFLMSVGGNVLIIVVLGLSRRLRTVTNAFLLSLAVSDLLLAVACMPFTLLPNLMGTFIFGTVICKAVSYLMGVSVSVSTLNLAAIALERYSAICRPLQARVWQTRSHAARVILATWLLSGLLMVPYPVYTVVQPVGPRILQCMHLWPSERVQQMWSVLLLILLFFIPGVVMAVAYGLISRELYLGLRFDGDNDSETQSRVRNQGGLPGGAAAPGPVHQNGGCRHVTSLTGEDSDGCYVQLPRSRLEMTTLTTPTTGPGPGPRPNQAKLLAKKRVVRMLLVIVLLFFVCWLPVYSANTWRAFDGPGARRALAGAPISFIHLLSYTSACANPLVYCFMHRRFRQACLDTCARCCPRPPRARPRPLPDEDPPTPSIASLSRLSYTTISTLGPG
# In short: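 Cortical membranes from male CD1 mice in HEPES buffer (pH 7.2; NaCl, KCl, MgCl2, EDTA, bacitracin) were incubated with competing compound and [125I]-CCK8S (added as a 200 pM solution) for 150 min at 21±3°. Non-specific binding was defined with L-365,260. Bound tracer was separated by GF/B filtration and counted by gamma counting.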
# gastrin = biological target: T2, gastrin (Rattus norvegicus, UniProt P30553); assay: gastrin antagonist activity in an immature rat stomach assay (pentagastrin-stimulated acid secretion); details: cumulative pentagastrin dose-response curves after 60 min with drug; for Kb: read-out: Gastrin pKB (converted)
# T2 construct: The stomach was lowered into a jacketed organ bath containing 40 ml of buffered solution; from tissue; host or cells: isolated perfused whole stomach of immature rats (ca. 21 days old)
# T2 sequence (P30553 1-452): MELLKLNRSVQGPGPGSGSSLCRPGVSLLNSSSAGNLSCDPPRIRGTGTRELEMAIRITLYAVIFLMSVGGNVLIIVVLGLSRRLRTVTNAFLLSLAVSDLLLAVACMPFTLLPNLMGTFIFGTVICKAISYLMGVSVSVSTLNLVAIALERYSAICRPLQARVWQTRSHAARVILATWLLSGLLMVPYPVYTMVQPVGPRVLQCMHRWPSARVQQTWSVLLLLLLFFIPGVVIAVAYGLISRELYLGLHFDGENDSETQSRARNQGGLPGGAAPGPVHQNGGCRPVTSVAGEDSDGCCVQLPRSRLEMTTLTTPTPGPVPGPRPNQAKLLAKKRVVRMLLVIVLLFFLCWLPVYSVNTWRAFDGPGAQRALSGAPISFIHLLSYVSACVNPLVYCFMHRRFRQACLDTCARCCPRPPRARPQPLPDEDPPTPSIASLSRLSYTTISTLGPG
# Method: The compounds of the examples were also tested for gastrin antagonist activity in an immature rat stomach assay. The procedure was as follows:
# The oesophagus of immature rats (33-50 g, ca. 21 days old) was ligated at the level of the cardiac sphincter and the duodenal sphincter was cannulated. The stomach was excised and flushed with ca. 1 ml of unbuffered physiological saline solution. The fundus was punctured and cannulated. A further 4-5 ml of unbuffered solution was flushed through the stomach to ensure the preparation was not leaking. The stomach was lowered into a jacketed organ bath containing 40 ml of buffered solution containing 3×10^-8 M 5-methylfurmethide, maintained at 37° and gassed vigorously with 95% O2 /5% CO2. The stomach was continuously perfused at a rate of 1 ml min^-1 with unbuffered solution gassed with 100% O2 with the perfusate passing over an internally referenced pH-electrode fixed 12 cm above the stomach.
# After 120 min of stabilisation the drugs were added directly to the serosal solution in the organ bath and after a further 60 min cumulative pentagastrin dose-response curves were started. Changes in acid secretion were monitored and the curves analysed according to Black et.al., Br. J. Pharmacol., 1985, 86, 581.
# CCKA = biological target: T3, CCKA (Cavia porcellus, UniProt Q63931); assay: CCKA radioligand binding assay in guinea-pig pancreas membranes ([125I]-CCK8(S)); details: PD134,308 present, 150 minutes at 21±3°; for Ki: read-out: CCKA pKi (converted)
# T3 construct: The pancreatata were homogenised in 40 ml ice-cold HEPES buffer using a polytron; from tissue; host or cells: pancreas membranes of male Dunkin Hartley guinea-pigs
# T3 sequence (Q63931 1-430): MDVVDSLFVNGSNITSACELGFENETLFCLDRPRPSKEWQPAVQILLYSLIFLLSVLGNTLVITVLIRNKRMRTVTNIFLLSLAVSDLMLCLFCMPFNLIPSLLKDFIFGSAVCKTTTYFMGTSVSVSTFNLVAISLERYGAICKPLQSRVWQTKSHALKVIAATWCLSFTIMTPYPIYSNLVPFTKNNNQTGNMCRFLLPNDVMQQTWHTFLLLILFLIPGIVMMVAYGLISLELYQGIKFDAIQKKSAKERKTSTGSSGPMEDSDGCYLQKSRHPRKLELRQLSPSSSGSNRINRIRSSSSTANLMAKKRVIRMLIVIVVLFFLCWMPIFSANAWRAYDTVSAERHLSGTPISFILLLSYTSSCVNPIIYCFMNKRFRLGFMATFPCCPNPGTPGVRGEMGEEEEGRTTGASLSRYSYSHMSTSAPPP
# In short: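 Male guinea-pig pancreas membranes (1 mg/ml wet tissue in HEPES pH 7.2, suspension containing 0.375 μM PD134,308) were incubated 150 min at 21±3° with [125I]-CCK8(S) ([…] added solution) and competitor. Non-specific binding used 100 nM L-364,718 (added solution). Bound radioligand was measured by GF/B filtration and gamma counting.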
molecule,measurement,setting,value
"O=C(O)c1cc(NC(=O)[C@H](Cc2ccccc2)NC(=O)c2cc3cc[nH]c3cc2C(=O)NCC2CCC(O)CC2)cc(C(=O)O)c1 (single isomer, unassigned) [Example 109, 5-(1S-(3,5-dicarboxyphenylaminocarbonyl)-2-phenylethylaminocarbonyl)-6-(4-hydroxycyclohexanemethylaminocarbonyl)-indole]",Ki,CCKB receptor,200 nM
same,Kb,gastrin,126 nM
same,Ki,CCKA,> 10000 nM
"5-(1S-(3,5-dicarboxyphenylaminocarbonyl)-2-(4-aminophenyl)ethylaminocarbonyl)-6-(1-adamantanemethylaminocarbonyl)-indole and regioisomer with substituents at positions 5 and 6 reversed [Example 31]",CCKB pKi,CCKB receptor,7.9
same,Gastrin pKB,gastrin,8.9
same,CCKA pKi,CCKA,5.5
"O=C(O)c1cc(NC(=O)[C@H](Cc2ccccc2C(F)(F)F)NC(=O)c2cc3[nH]cnc3cc2C(=O)NCC23CC4CC(CC(C4)C2)C3)cc(C(=O)O)c1 [Example 133, 5-(1S-(3,5-dicarboxyphenylaminocarbonyl)-2-(2-trifluoromethylphenyl)ethylaminocarbonyl)-6-(1-adamantanemethylaminocarbonyl)-benzimidazole]",Kb,gastrin,7.94 nM
same,Ki,CCKA,7940 nM
"C[C@@H](NC(=O)[C@H]1CCCN1C(=O)c1cc2ccccc2cc1C(=O)NCC12CC3CC(CC(C3)C1)C2)C(=O)O [Example 10, 2-(2R-(1R-carboxyethylaminocarbonyl)pyrrolidinocarbonyl)-3-(1-adamantanemethylaminocarbonyl)-naphthalene]",Ki,CCKB receptor,1580 nM
same,Kb,gastrin,316 nM
1/2-(1-adamantanemethylaminocarbonyl)-naphthoic acid Regioisomer 1 [Example 21],Gastrin pKB,gastrin,5.3
same,CCKA pKi,CCKA,5.2
"3-(1S-(3,5-dicarboxyphenylaminocarbonyl)-2-phenylethylaminocarbonyl)-2-(1-adamantanemethylaminocarbonyl)-1-phenylnaphthalene and its regioisomer with groups at positions 2 and 3 reversed [Example 56]",CCKB pKi,CCKB receptor,7.0
same,Gastrin pKB,gastrin,7.1
"COC(=O)c1cc(NC(=O)[C@H](Cc2ccccc2)NC(=O)c2cc3cc[nH]c3cc2C(=O)NCC23CC4CC(CC(C4)C2)C3)cc(C(=O)OC)c1 [Example 35, 5-(1S-(3,5-dimethoxycarbonylphenylaminocarbonyl)-2-phenylethylaminocarbonyl)-6-(1-adamantanemethylaminocarbonyl)-indole]",Ki,CCKB receptor,63.1 nM
same,Kb,gastrin,2 nM
"O=C(O)c1cc(NC(=O)[C@H](Cc2ccccc2F)NC(=O)c2cc3[nH]cnc3cc2C(=O)NCC23CC4CC(CC(C4)C2)C3)cc(C(=O)O)c1 [Example 63, 5-(1S-(3,5-dicarboxyphenylaminocarbonyl)-2-(2-fluorophenyl)ethylaminocarbonyl)-6-(1-adamantanemethylaminocarbonyl)-benzimidazole]",CCKB pKi,CCKB receptor,8.4
same,Gastrin pKB,gastrin,9.1
"CC(=O)NS(=O)(=O)c1cccc(NC(=O)[C@H](Cc2ccccc2)NC(=O)c2cc3[nH]cnc3cc2C(=O)NCC23CC4CC(CC(C4)C2)C3)c1 [Example 137, 5-(1S-(3-acetylaminosulphonylphenylaminocarbonyl)-2-phenylethylaminocarbonyl)-6-(1-adamantanemethylaminocarbonyl)-benzimidazole]",Ki,CCKB receptor,20 nM
same,Kb,gastrin,15.8 nM
"C[C@H](NC(=O)[C@H]1CCCN1C(=O)c1cc2ccccc2cc1C(=O)N(C)CC12CC3CC(CC(C3)C1)C2)C(=O)O [Example 13, 2-(2R-(1S-carboxyethylaminocarbonyl)pyrrolidinocarbonyl)-3-(1-adamantanemethyl(N-methyl)aminocarbonyl)-naphthalene]",Ki,CCKB receptor,2000 nM
same,Kb,gastrin,398 nM
"O=C(O)c1cc(NC(=O)[C@H](Cc2ccc(I)cc2)NC(=O)c2cc3cc[nH]c3cc2C(=O)NCC23CC4CC(CC(C4)C2)C3)cc(C(=O)O)c1 [Example 32, 5-(1S-(3,5-dicarboxyphenylaminocarbonyl)-2-(4-iodophenyl)ethylaminocarbonyl)-6-(1-adamantanemethylaminocarbonyl)-indole]",Ki,CCKB receptor,3.98 nM
same,Kb,gastrin,0.794 nM
"O=C(O)c1cc(NC(=O)[C@H](Cc2ccccc2)NC(=O)c2cc3c(cc2C(=O)NCC24CC5CC(CC(C5)C2)C4)[nH]c2ccccc23)cc(C(=O)O)c1 [Example 51, 3-(1S-(3,5-dicarboxyphenylaminocarbonyl)-2-phenylethylaminocarbonyl)-2-(1-adamantanemethylaminocarbonyl)-carbazole]",Ki,CCKB receptor,10 nM
same,Kb,gastrin,25.1 nM
"CN(CC12CC3CC(CC(C3)C1)C2)C(=O)c1cc2ccccc2cc1C(=O)N1CCC[C@@H]1C(=O)NCC(=O)O [Example 14, 2-(2R-carboxymethylaminocarbonylpyrrolidino-carbonyl)-3-(1-adamantanemethyl(N-methyl)aminocarbonyl)-naphthalene]",Ki,CCKB receptor,1000 nM
same,Kb,gastrin,316 nM
"O=C(O)CNC(=O)[C@H]1CCCN1C(=O)c1cc2ccccc2cc1C(=O)NCC12CC3CC(CC(C3)C1)C2 [Example 11, 2-(2R-carboxymethylaminocarbonylpyrrolidinocarbonyl)-3-(1-adamantanemethylaminocarbonyl)-naphthalene]",Ki,CCKB receptor,1260 nM
same,Kb,gastrin,251 nM
"5-(1S-(3,5-dicarboxyphenylaminocarbonyl)-5-aminopentylaminocarbonyl)-6-(1-adamantanemethylaminocarbonyl)-indole and regioisomer with substituents at positions 5 and 6 reversed [Example 65]",CCKB pKi,CCKB receptor,7.3
same,Gastrin pKB,gastrin,8.2
"C[C@@H](NC(=O)[C@H]1CCCN1C(=O)c1cc2ccccc2cc1C(=O)N(C)CC12CC3CC(CC(C3)C1)C2)C(=O)O [Example 12, 2-(2R-(1R-carboxyethylaminocarbonyl)pyrrolidinocarbonyl)-3-(1-adamantanemethyl(N-methyl)aminocarbonyl)-naphthalene]",Ki,CCKB receptor,1260 nM
same,Kb,gastrin,1260 nM
